Assay results published in the supplement of paper PMC10307832.

Compound: CN1CCN(CC1)C2=CC(=C(C=C2)NC3=NC(=C(S3)C(=O)C4=C(C=CC=C4Cl)Cl)N)OC [XMD14-99] + O=C(c1cc(Cc2n[nH]c(=O)c3ccccc23)ccc1F)N1CCN(C(=O)C2CC2)CC1 [Olaparib] (partner 8 µM)
Experiment: relative viability (nuclei count vs DMSO), 5 days (fraction); higher = more cells survive
Conditions: first compound 0.08 µM
Method in brief: (§1)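 Relative viability is defined as nuclei in treated wells over nuclei in vehicle wells. Duplicate plates were run and medians reported. Lung cancer cell lines in 1536-well plates were dosed by pin tool one day after seeding, with one drug or with a fixed anchor-drug dose plus five library-drug doses (not always all listed) in √10 steps, and nuclei were counted after 5 days.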

Going from CAL-12T to SK-LU-1, the relative viability falls from 0.674 to 0.423.

NCI-H661 gave a relative viability of 0.684.

Same assay, conditions: first compound 0.8 µM

Compared with NCI-H522, NCI-H838 is lower in relative viability: 0.808 for the first, 0.754 for the second.

First: NCI-H1650
Second: EBC-1
The relative viability of the first is lower: 0.597 for the first, 0.635 for the second.

Going from NCI-H1703 to NCI-H2009, the relative viability rises from 0.456 to 0.835.

First: NCI-H1993
Second: PC-14
The relative viability of the first is higher: 0.942 for the first, 0.248 for the second.

First: LCLC-103H
Second: NCI-H596
The relative viability of the first is higher: 0.779 for the first, 0.725 for the second.

Going from NCI-H2228 to EMC-BAC-2, the relative viability falls from 0.603 to 0.483.

Compared with NCI-H2087, Calu-6 is higher in relative viability: 0.476 for the first, 0.529 for the second.

First: HCC-366
Second: NCI-H1666
The relative viability of the first is lower: 0.344 for the first, 0.73 for the second.

First: NCI-H647
Second: LK-2
The relative viability of the first is lower: 0.561 for the first, 0.591 for the second.

Going from NCI-H2126 to NCI-H2342, the relative viability falls from 0.87 to 0.459.

Compared with SK-MES-1, H3255 is lower in relative viability: 0.689 for the first, 0.507 for the second.

Going from COR-L23 to COR-L 105, the relative viability rises from 0.298 to 0.699.

First: IA-LM
Second: LOU-NH91
The relative viability of the first is lower: 0.691 for the first, 0.919 for the second.

First: ChaGo-K-1
Second: NCI-H2170
The relative viability of the first is lower: 0.438 for the first, 0.565 for the second.

Going from NCI-H3122 to HOP-62, the relative viability falls from 0.682 to 0.634.

Going from A549 to SW 900, the relative viability rises from 0.377 to 0.845.

Compared with NCI-H1648, NCI-H520 is lower in relative viability: 0.433 for the first, 0.381 for the second.

First: SW 1573
Second: NCI-H1299
The relative viability of the first is lower: 0.457 for the first, 0.969 for the second.

Compared with CAL-12T, SK-LU-1 is lower in relative viability: 0.785 for the first, 0.459 for the second.

NCI-H661 was tested, and the relative viability was 0.663.

Same assay, conditions: first compound 2.53 µM

First: NCI-H522
Second: NCI-H838
The relative viability of the first is lower: 0.594 for the first, 0.637 for the second.

Compared with NCI-H1650, EBC-1 is higher in relative viability: 0.639 for the first, 0.646 for the second.

First: NCI-H1703
Second: NCI-H2009
The relative viability of the first is lower: 0.622 for the first, 0.656 for the second.

Compared with NCI-H1993, PC-14 is lower in relative viability: 0.943 for the first, 0.164 for the second.

Compared with LCLC-103H, NCI-H596 is lower in relative viability: 0.752 for the first, 0.646 for the second.

Going from NCI-H2228 to EMC-BAC-2, the relative viability falls from 0.706 to 0.443.

Compared with NCI-H2087, Calu-6 is lower in relative viability: 0.515 for the first, 0.502 for the second.

Compared with HCC-366, NCI-H1666 is higher in relative viability: 0.315 for the first, 0.737 for the second.

First: NCI-H647
Second: LK-2
The relative viability of the first is higher: 0.746 for the first, 0.685 for the second.

Going from NCI-H2126 to NCI-H2342, the relative viability falls from 0.736 to 0.484.

Compared with SK-MES-1, H3255 is lower in relative viability: 0.576 for the first, 0.491 for the second.

Going from COR-L23 to COR-L 105, the relative viability rises from 0.298 to 0.682.

Going from IA-LM to LOU-NH91, the relative viability rises from 0.68 to 0.891.

Going from ChaGo-K-1 to NCI-H2170, the relative viability rises from 0.403 to 0.537.

Compared with NCI-H3122, HOP-62 is lower in relative viability: 0.62 for the first, 0.501 for the second.

First: A549
Second: SW 900
The relative viability of the first is lower: 0.311 for the first, 0.766 for the second.

Compared with NCI-H1648, NCI-H2023 is lower in relative viability: 0.654 for the first, 0.311 for the second.

First: NCI-H520
Second: SW 1573
The relative viability of the first is lower: 0.32 for the first, 0.488 for the second.

Compared with NCI-H1299, CAL-12T is lower in relative viability: 0.935 for the first, 0.671 for the second.

Compared with SK-LU-1, NCI-H661 is higher in relative viability: 0.374 for the first, 0.619 for the second.

Same assay, conditions: first compound 8 µM

Going from NCI-H522 to NCI-H838, the relative viability falls from 0.557 to 0.45.

First: NCI-H1650
Second: EBC-1
The relative viability of the first is higher: 0.734 for the first, 0.382 for the second.

First: NCI-H1703
Second: NCI-H2009
The relative viability of the first is lower: 0.269 for the first, 0.538 for the second.

Compared with NCI-H1993, PC-14 is lower in relative viability: 0.793 for the first, 0.0816 for the second.

Going from LCLC-103H to NCI-H596, the relative viability rises from 0.657 to 0.665.

First: NCI-H2228
Second: EMC-BAC-2
The relative viability of the first is lower: 0.273 for the first, 0.422 for the second.

First: NCI-H2087
Second: Calu-6
The relative viability of the first is lower: 0.382 for the first, 0.472 for the second.

First: HCC-366
Second: NCI-H1666
The relative viability of the first is lower: 0.243 for the first, 0.763 for the second.

First: NCI-H647
Second: LK-2
The relative viability of the first is lower: 0.38 for the first, 0.419 for the second.

Going from NCI-H2126 to NCI-H2342, the relative viability falls from 0.759 to 0.409.

Compared with SK-MES-1, H3255 is higher in relative viability: 0.32 for the first, 0.343 for the second.

Compared with COR-L23, COR-L 105 is higher in relative viability: 0.193 for the first, 0.621 for the second.

First: IA-LM
Second: LOU-NH91
The relative viability of the first is lower: 0.352 for the first, 0.692 for the second.

First: ChaGo-K-1
Second: NCI-H2170
The relative viability of the first is lower: 0.292 for the first, 0.466 for the second.

First: NCI-H3122
Second: HOP-62
The relative viability of the first is higher: 0.441 for the first, 0.312 for the second.

Going from A549 to SW 900, the relative viability rises from 0.27 to 0.525.

First: NCI-H1648
Second: NCI-H2023
The relative viability of the first is higher: 0.316 for the first, 0.122 for the second.

First: NCI-H520
Second: SW 1573
The relative viability of the first is lower: 0.196 for the first, 0.308 for the second.

First: NCI-H1299
Second: CAL-12T
The relative viability of the first is higher: 0.742 for the first, 0.607 for the second.

Compared with SK-LU-1, NCI-H661 is higher in relative viability: 0.34 for the first, 0.485 for the second.

Compound: N[C@@H]1CCCN(c2c(/C=C3\SC(=O)NC3=O)cccc2-c2ccccc2)C1 [AZD1208] + Nc1ncn([C@H]2C[C@H](O)[C@@H](CO)O2)c(=O)n1 [Decitabine] (partner 2 µM)
Experiment: as above
Conditions: first compound 0.08 µM
Method in brief: as §1

Compared with NCI-H522, NCI-H838 is lower in relative viability: 0.678 for the first, 0.458 for the second.

Compared with NCI-H1650, NCI-H2009 is lower in relative viability: 0.513 for the first, 0.41 for the second.

First: NCI-H1993
Second: PC-14
The relative viability of the first is higher: 0.526 for the first, 0.254 for the second.

Going from LCLC-103H to NCI-H596, the relative viability rises from 0.715 to 0.847.

Compared with EMC-BAC-2, NCI-H2087 is lower in relative viability: 0.932 for the first, 0.229 for the second.

First: HCC-366
Second: NCI-H1666
The relative viability of the first is lower: 0.315 for the first, 0.735 for the second.

First: NCI-H647
Second: LK-2
The relative viability of the first is lower: 0.256 for the first, 0.316 for the second.

First: NCI-H2126
Second: NCI-H2342
The relative viability of the first is lower: 0.563 for the first, 0.772 for the second.

First: SK-MES-1
Second: H3255
The relative viability of the first is lower: 0.373 for the first, 0.689 for the second.

First: COR-L23
Second: COR-L 105
The relative viability of the first is lower: 0.439 for the first, 0.734 for the second.

Compared with LOU-NH91, ChaGo-K-1 is lower in relative viability: 0.766 for the first, 0.522 for the second.

Compared with NCI-H2170, NCI-H3122 is higher in relative viability: 0.439 for the first, 0.457 for the second.

First: HOP-62
Second: A549
The relative viability of the first is lower: 0.231 for the first, 0.238 for the second.

Going from SW 900 to NCI-H1648, the relative viability rises from 0.456 to 0.631.

Going from NCI-H2023 to NCI-H520, the relative viability rises from 0.232 to 0.566.

Going from SW 1573 to SK-LU-1, the relative viability rises from 0.465 to 0.586.

Cell Line NCI-H661 has a relative viability of 0.559.

Same assay, conditions: first compound 0.253 µM

Going from NCI-H522 to NCI-H838, the relative viability falls from 0.634 to 0.491.
